Tests used:
Type in all cases: in vivo
Lycopersicum esculentum [1] = assay: Sugar content determination of Lycopersicum esculentum fruit with refractometer (Example 2); conditions: 0.5 mM applied as in Example 1; compared to Cont and Cont2 Sunny conditions; ANOVA 5%
Source text: Cultivated were Lycopersicum esculentum plants to which GSSG or GSH was applied by the method described in Example 1. Then, obtained fruit of the plants was subjected to sugar content determination using “Pocket” Refractometer APAL-1 (ATAGO CO., LTD.).
For comparison, Lycopersicum esculentum plants were cultivated under two types of conditions (referred to as “Cont” and “Cont2 Sunny”). In the Cont condition, Lycopersicum esculentum plants were cultivated by the same method as in Example 1, except that GSSG and GSH were not applied. In the Cont2 Sunny condition, a Lycopersicum esculentum plant was not applied with GSSG or GSH and was independently cultivated at a site sufficiently irradiated with sunlight so that illuminance on the Lycopersicum esculentum plant becomes 100%. In the Cont condition and a condition in which GSSG or GSH was applied, the plants were planted at intervals of 40 cm to 50 cm. In this case, a plant may intercept light irradiating another plant. Therefore, illuminance on such plants becomes less than 100%.
In the condition in which GSSG was applied, the condition in which GSH is applied, and the Cont condition, three Lycopersicum esculentum plants were cultivated, respectively. In the Cont2 Sunny condition, one Lycopersicum esculentum plant was cultivated. […]

Fragaria ananassa [2] = assay: Sugar content determination of Fragaria ananassa fruit with refractometer (Example 10); conditions: 50 mL of 0.2 or 0.5 mM GSSG, or 0.4 or 0.5 mM GSH, once a week at root; significance level 5%
Method: (§1) First, Fragaria ananassa seedlings were transplanted to a planter. In the planter, 6 L of vermiculite (ASAHI INDUSTRIES Co., LTD.), 3 L of KUREHA horticultural soil (KUREHA CORPORATION), and 3 L of vermiculite were layered as a lower, middle, and upper layers, respectively.
(§2) During cultivation of Fragaria ananassa plants, 50 mL of 0.2 mM or 0.5 mM GSSG or 50 mL of 0.4 mM or 0.5 mM GSH (adjusted with 0.1N NaOH to be at pH7) was applied once a week at a root per plant. The plants were grown for 63 days without being subjected to bud removal. For comparison, a Fragaria ananassa plant was grown under the same condition, except that GSSG and GSH were not applied. To the plants of any condition, 3 g of Kumiai phosphorate ammonium nitrate potassium S-604 (Chisso Asahi Fertilizer Co., Ltd.) was applied as an additional fertilizer once in 2 weeks.
Further, the fruit obtained was subjected to sugar content determination using “Pocket” Refractometer APAL-1 (ATAGO CO., LTD.). For comparison, fruit not applied with GSSG or GSH was also subjected to the sugar content determination. […] In FIG. 7, the vertical scale indicates sugar content (Brix, unit: %).

Lycopersicum esculentum [3] = assay: Change of sugar content over time after one application of GSH or GSSG (Example 6); conditions: 50 mL of 0.5 mM once at root 90 days after sowing; fruit harvested day 0 to day 4
Method: In the present example, a sugar content of a plant was determined after a substance for regulating an oxidation-reduction state of a cell was applied to the plant. The substance for regulating an oxidation-reduction state of a cell was GSH or GSSG. As in the case of Example 1, Lycopersicum esculentum was used as the plant. Specifically, the following operations were carried out.
Ninety days after sowing of Lycopersicum esculentum seeds, Lycopersicum esculentum plants were subjected to a GSH or GSSG treatment. The Lycopersicum esculentum plants were cultivated by the same method as in Example 1 except for the GSH or GSSG treatment. The GSH or GSSG treatment was such that 50 mL of 0.5 mM GSSH or 0.5 mM GSH (adjusted with 0.1N NaOH to be at pH 7) was applied once at a root per plant. Then, fruit of the plants was harvested every day from the 0th day until the 4th day after application of GSH or GSSG, and subjected to sugar content determination. […] FIG. 3 is a graph showing a determination result of relation between sugar content and the number of days from an application day of GSH or GSSG. In FIG. 3, the vertical scale indicates sugar content (Brix, unit: %) and the horizontal scale indicates days from the application day. In FIG. 3, lines labeled with circles, triangles, and squares show results of the plants applied with GSH, GSSG, and no GSH and no GSSG, respectively. […]

Lycopersicum esculentum [4] = assay: Cultivation of Lycopersicum esculentum with GSSG or GSH, sensory tests of fruit (Example 1); conditions: 50 mL of 0.5 mM at root twice a week, 60 days
Source text: In the present example, Lycopersicum esculentum was cultivated with use of GSSG or GSH. Details of cultivation are described below.
First, Lycopersicum esculentum seedlings (TAKII & CO. Ltd., product name: Osama tomato reika) were transplanted into a hydroponic culture pot ( 1/2000 a). In the hidroponic culture pot, 6 L of vermiculite (ASAHI INDUSTRIES Co., LTD.), 3 L of KUREHA horticultural soil (KUREHA CORPORATION), and 3 L of vermiculite were layered as a lower, middle, and upper layers, respectively.
During the cultivation of Lycopersicum esculentum, 50 mL of 0.5 mM GSSG or 0.5 mM GSH (adjusted with 0.1N NaOH to be at pH 7) was applied twice a week at a root per plant. The Lycopersicum esculentum plants were grown for 60 days without being subjected to bud removal. Last 10 days was used as a harvest period for harvesting fruit of the plants. For comparison, a Lycopersicum esculentum plant was grown under the same condition, except that GSSG and GSH were not applied. To the plants of any condition, 3 g of Kumiai phosphorate ammonium nitrate potassium S-604 (Chisso Asahi Fertilizer Co., Ltd.) was applied as an additional fertilizer once in 2 weeks.
Next, the fruit harvested was subjected to sensory tests of sugar content and the like. As a result, it was determined that fruit of the plant applied with GSSG increased in sugar content compared to that of the plant not applied with GSSG or GSH. Further, it was determined that the plant applied with GSSG increased in number of fruit. It was determined that fruit of the plant applied with GSH increased in sugar content and acidity.

[5] = test system: Vitis labrusca (Delaware); assay: Cultivation of Vitis labrusca with GSSG or GSH, sensory test (Example 5)
Method: In the present invention, Vitis labrusca was cultivated. Specifically, immediately after flowering of a Vitis labrusca (Delaware) plant, a mixed solution of 1 mM gibberellin (GA3) and 1 mM of an agent was applied to anthotaxy of the plant. The agent was GSSG or GSH. Then, the plant was coated with the agent and thereafter produced fruit was harvested. For comparison, a Vitis labrusca plant was cultivated in the same way, except that GA3, but not GSSG or GSH, was applied, and fruit thereof was harvested and subjected to a sensory test described below.
The fruit harvested was subjected to a sensory test of sugar content. As a result, it was determined that fruit of the plant applied with GA3 and GSSG or GSH increased in sugar content compared to that of the plant applied with only GA3. Further, it was determined that the plant applied with GSSG and GA3 increased in size of fruit.

Fragaria ananassa [6] = assay: Cultivation of Fragaria ananassa with GSSG or GSH, sensory tests of fruit (Example 10); conditions: 50 mL of 0.2 or 0.5 mM GSSG, or 0.4 or 0.5 mM GSH, once a week at root, 63 days
Method: In the present example, Fragaria ananassa was cultivated with use of GSSG or GSH. Details of cultivation are described below.
as §1, §2
Next, the fruit harvested was subjected to sensory tests of sugar content and the like. As a result, it was determined that fruit of the plant applied with GSSG increased in sugar content and decreased in acidity compared to that of the plant not applied with GSSG or GSH. Further, it was determined that the plant applied with GSSG increased in number of fruit. It was also determined that fruit of the plant applied with GSH increased in sugar content and acidity.

How did the “sugar content of fruit (Brix)” value (Lycopersicum esculentum [1]) turn out when `N[C@@H](CCC(=O)N[C@@H](CS)C(=O)NCC(=O)O)C(=O)O` [GSH, reduced glutathione] was run?
Its value is “significantly increased”.

What about the “sugar content of fruit (Brix), ANOVA versus fruit not applied” value (Fragaria ananassa [2]) of the same compound?
Its value is “significant difference”.

And the “sugar content of fruit (Brix) after application” value (Lycopersicum esculentum [3])?
The value was “rapidly improve”.

What about the “acidity of fruit (sensory test)” value (Lycopersicum esculentum [4]) of the same compound?
Its value is “increased”.

What about the “sugar content of fruit (sensory test)” value (Lycopersicum esculentum [4]; compared to plant not applied with GSSG or GSH) of the same compound?
The value was “increased”.

And the “sugar content of fruit (sensory test)” value ([5]; 1 mM agent mixed with 1 mM gibberellin (GA3), applied to anthotaxy, compared to plant applied with only GA3)?
Its value is “increased”.

What about the sugar content ([5]; applied without GA3) of the same compound?
The sugar content was “increased”.

What about the “acidity of fruit (sensory test)” value (Fragaria ananassa [6]) of the same compound?
The value was “increased”.

And the “sugar content of fruit (sensory test)” value (Fragaria ananassa [6]; vs plant not applied)?
The value was “increased”.

— US8524978B2, “Composition for production of plant body having improved sugar content, and use thereof” (Japan Science and Technology Agency, priority 2007, dated 2013)
